Source: patent US9642865B2, “Angiogenesis inhibitors” (THE JOHNS HOPKINS UNIVERSITY, priority 2004, dated 2017)

Legend:
[1] = test system: human umbilical vein endothelial cells (HUVEC); experiment: HUVEC proliferation, [3H]-thymidine incorporation; assay type: cell-based; details: guanine 10 μM and 20 μM
Protocol: (§1) 32,000 FDA drug approvals obtained by Freedom of Information Act requests were condensed to 3,400 unique drug formulations. Drugs were purchased from Sigma, Spectrum Chemicals, MP Biomedicals, The Johns Hopkins Hospital pharmacy, Biomol, and Tocris. 10 mM stock solutions were made using DMSO, water, or ethanol as solvents. Drugs were arrayed in 96-well plates and screened at a final concentration of 10 μM. Cells were incubated with drug for 36 h and proliferation was measured by pulsing with 1 μCi [^3H]-thymidine for 8 h followed by absorption onto glass filters and scintillation counting.
(§2) IC50 measurements were carried out in triplicate, and analyzed using four parameter logarithmic analysis. Values are presented+/−the standard error of the mean. P-values were calculated using the Student's T-test.
A library of 1,850 FDA-approved drugs and 600 drugs that entered the clinic via approval in a foreign country or phase II clinical trials was created. To discover new angiogenesis inhibitors among known drugs, the library was screened for inhibition of human umbilical vein endothelial cells (HUVEC) using [^3H]-thymidine incorporation. […] After eliminating known cytotoxic drugs such as taxol and colchicine or drugs that are restricted to topical use, several drugs remained. […]

[2] = test system: Jurkat T cells; experiment: Jurkat T-cell proliferation, [3H]-thymidine incorporation; assay type: cell-based
Protocol: as §1, §2
MPA is an immunosuppressive drug widely used to prevent rejection of transplanted organs (Lipsky, J. J. (1996) Lancet 348, 1357-1359). The mechanism of action in the immune system is well established-MPA inhibits de novo biosynthesis of purines in T and B lymphocytes (Allison, A. C. & Eugui, E. M. (2000) Immunopharmacology 47, 85-118). […] Thus, a comparison of HUVEC to Jurkat T cells for sensitivity to MPA in the presence and absence of guanine was carried out. […] Addition of guanine at or above 20 μM rendered Jurkat T cells resistant to MPA. […]

[3] = test system: HUVEC; experiment: Cell cycle analysis of HUVEC; assay type: cell-based, human; details: 1 μM MPA + 50 μM guanosine
Source text: It has been shown that MPA causes cell cycle arrest in activated T and B lymphocytes at G1 (Laliberte, J., Yee, A., Xiong, Y. & Mitchell, B. S. (1998) Blood 91, 2896-2904). Therefore, the effect of MPA on endothelial cell cycle progression was examined.

COc1c(C)c2c(c(O)c1C/C=C(\C)CCC(=O)O)C(=O)OC2 [MPA, 6-(4-hydroxy-6-methoxy-7-methyl-3-oxo-1,3-dihydroisobenzofuran-5-yl)-4-methyl-hex-4-enoic acid]
effect of exogenous guanine on MPA inhibition of HUVEC proliferation [1]: partially reversed
effect of exogenous guanine on MPA inhibition of Jurkat T-cell proliferation ([2]; guanine 10 μM): unaffected
effect of exogenous guanine on MPA inhibition of Jurkat T-cell proliferation ([2]; guanine 20 μM and 50 μM): completely reversed
effect of guanosine on the cell cycle effect of MPA [3]: completely reversed
